Values of other authors in patent publication US11098113B2, “Immunoglobulin single variable domains directed against macrophage migration inhibitory factor” (VIB VZW, priority 2016, dated 2021).

Tested on: LPS stimulated RAW264.7 macrophages
Conditions: ISO-1 at 10 μM, same in vitro conditions; cited from earlier work

COC(=O)C[C@@H]1CC(c2ccc(O)cc2)=NO1 (racemic) [ISO-1, (S,R)-3-(4-hydroxyphenyl)-4,5-dihydro-5-isoxazole acetic acid methyl ester]
inhibition of TNF production: about 50%
